Where “and” joins values, the source holds several entries; their conditions need not be identical. Identical values can stand only once. Like-named read-outs stand apart in the source and are kept apart here.
Tests used:
IL-1β [1] = target: T1, IL-1β (Homo sapiens, UniProt P01584); test: protein-observed 1H-13C-HMQC NMR binding (I/Io of Leu60 Cδ1H3); design: Mature hIL-1β was expressed in Escherichia coli; made in house; host or cells: Escherichia coli BL21 (DE3), pET17b; details: for NMR I/Io values, individual experiments (Exp1-2) / NMR I/Io values, Mean: source data; for I/Io (ratio of peak intensities of Leu60 Cδ1H3 in 1H-13C-HMQC spectra in presence and absence of ligand): hIL-1β 50 µM, 500 µM compound
T1 sequence (P01584 117-269): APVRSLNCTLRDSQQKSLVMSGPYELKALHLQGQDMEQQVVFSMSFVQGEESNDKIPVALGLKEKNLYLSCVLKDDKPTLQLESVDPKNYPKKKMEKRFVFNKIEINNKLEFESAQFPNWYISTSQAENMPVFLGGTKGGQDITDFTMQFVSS
Experimental: ^1H–^13C- and ^1H–^15N-HMQC spectra were recorded on Bruker AVANCE 600 MHz and 800 MHz spectrometers equipped with TXI-cryocooled probeheads. In ligand binding experiments, protein concentrations were typically 50 μM in PBS, pH 7.4. Backbone assignments of hIL-1β in the ligand-bound state and unliganded state were obtained by a combination of a 3D triple resonance experiment HNCACB and a ^15N-edited NOESY spectrum, which were processed using TOPSPIN 3.2 and analyzed using CcpNmr AnalysisAssign 3.1.0[46]. ^15N-CEST experiments were run at weak B1 radiofrequency fields of 25 and 12.5 Hz on a Bruker AVANCE 800 MHz spectrometer with 113 increments and a total sweep width of 28 ppm in the pseudo-3D dimension. Peak intensities were extracted by fitting pseudo-Voigt lineshape models using peakipy (https://github.com/j-brady/peakipy). Fitted peak intensities were subsequently used to generate CEST profiles, and exchange parameters were fitted using ChemEx (https://github.com/gbouvignies/ChemEx).
Supplementary Figure 2. 13C-NMR and 19F-NMR reporter assays to monitor early
13C-HMQC spectra of hIL-1b (50 µM) were acquired in the presence (red) and absence (blue) of 500
µM compound and rows were extracted at the w1-frequency of the peak corresponding to Leu60 […]

IL-1α = target: T2, IL-1α (Homo sapiens, UniProt P01583); test: TR-FRET IL-1α/hIL-1R1 receptor displacement assay; assay type: biochemical; details: read-out: TR-FRET IL-1α IC50
T2 sequence (P01583 113-271): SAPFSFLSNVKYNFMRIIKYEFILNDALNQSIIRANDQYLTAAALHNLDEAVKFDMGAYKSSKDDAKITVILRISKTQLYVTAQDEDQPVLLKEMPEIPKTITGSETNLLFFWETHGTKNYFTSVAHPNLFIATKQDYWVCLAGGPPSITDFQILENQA
Experimental: After 1 h incubation at room temperature, hIL-1R1 (1–332; Alexa 647 labeled; 50 nM final concentration) and anti-His-Europium W1024 (Perkin Elmer; Cat.No. AD0401, 1 nM final concentration) were added to a final volume of 10 μl per well. After 1 h of incubation at room temperature, time-resolved fluorescence was measured at λexc = 320 ± 20 nm, λem = 620 ± 25 nm/665 ± 25 nm using a Pherastar FSX plate reader. All experiments were run in triplicates. The data provided a typical saturation-binding curve, and the IC50 values were calculated by fitting the results to the Hill equation using Prism 7.0 and the in-house software Helios.

IL-1β [2] = target: T1, IL-1β; test: SPR binding of compounds to immobilized hIL-1β; design: Mature hIL-1β was expressed in Escherichia coli; made in house; host or cells: Escherichia coli BL21 (DE3), pET17b
Experimental: All SPR experiments were performed with an SPR-32 instrument (Bruker Daltonics SPR, Hamburg, Germany). SPR chips were from XanTec bioanalytics GmbH (Düsseldorf, Germany).
C-terminally avi-tagged hIL-1β protein was immobilized onto a SAHC200M chip with a neutravidin-coated surface. Immobilization was performed with a protein injection of 0.02 mg/ml IL-1β diluted in PBS pH 7.5 (Gibco 70011-036, 10×), 0.05% Tween-20 for 5 min at 10 μl/min. The running buffer for binding studies of compounds was PBS pH 7.4, 0.05% Tween-20, and 2% DMSO. For the correction of small DMSO variations between samples, injections of 6 solvent samples ranging from 1% to 3% DMSO were run. Compound measurements were performed in MICK mode (multiple injection cycles kinetic) with a dose–response of 10 concentrations. Dissociation constants for compounds (KD) were obtained by determining steady-state fit that followed the 1:1 Langmuir model.
Data analysis was performed with the Sierra Analyzer 3.4.0 software from Bruker. Signal intensities were corrected for nonspecific binding to the surface by subtracting intensities from the reference surface from those of the hIL-1β surfaces (first reference subtraction) and by subtracting the buffer injection (second reference subtraction). KD values were carried out by determining a reporting point close to the end of the injection, used for steady-state fit, in addition to a kinetic fit delivering kon- and koff-values; both fitting models followed the 1:1 Langmuir equation.
Supplementary Figure 3. De termination of binding af fi nit ie s for se l ec ted ana l ogues of 1 by SPR. a - d Gr ap hs of exemplary experimen ts are given , where the sat urat ion of hI L-1b immobil ized on a chip was monitored at various concentrations of compound 3, 12, 10, and 11, respectively. Th e saturati on reached at equ ilibri um (insert) was plo tt ed versus the admini stered concentration and the equ ilibri um bin ding constant was derived from a non-li near lea st square fitting routine. e equ ilibri um and f kinetic bin ding of (S)-2 to IL-1b (kon = 1. 15 x 105 M-1 s-1 and koff = 0. 12 s-1).

IL-1β [3] = target: T1, IL-1β; test: TR-FRET IL-1β/hIL-1R1 receptor displacement assay; assay type: biochemical; details: read-out: TR-FRET IL-1β IC50
Experimental: After 1 h incubation at room temperature, hIL-1R1 (1–332; Alexa 647 labeled; 50 nM final concentration) and anti-His-Europium W1024 (Perkin Elmer; Cat.No. AD0401, 1 nM final concentration) were added to a final volume of 10 μl per well. […] All experiments were run in triplicates.

IL-1β [4] = target: T1, IL-1β; test: 19F-reporter displacement assay with (S)-1 as probe; assay type: binding; design: Mature hIL-1β was expressed in Escherichia coli; made in house; host or cells: Escherichia coli BL21 (DE3), pET17b
Experimental: Protein and reporter concentrations were 10 and 40 μM, respectively. To account for changes in sample homogeneity, samples contained 1-(2,2,2-trifluoroacetyl)piperidine-4-carboxylic acid as an internal reference for scaling signal intensities. Three concentrations of the competitor were typically measured, and the related displacement of the probe was converted into Ki-values according to Dalvit and Vulpetti[17]. […] This process was automated with FRPipe, an in-house developed Python script (https://github.com/Novartis/FRPipe) that allows for streamlined analysis of such experiments. […] For visual inspection, an overview containing relevant ^19F peaks, fitting curves, and proton spectra was plotted.
Supplementary Figure 2. 13C-NMR and 19F-NMR reporter assays to monitor early structure activity relationships of analogues of 1. a, b Early structure activity relationships monitored by protein-observed and c-f 19F-NMR reporter assays, exemplified for compound 8. a 1H-13C-HMQC spectra of hIL-1b (50 µM) were acquired in the presence (red) and absence (blue) of 500 µM compound and rows were extracted at the w1-frequency of the peak corresponding to Leu60 Cd1H3. b The degree of protein binding was estimated from the ratio I/I0, where I and I0 correspond to the signal in the presence and absence of compound, respectively. c For the assessment of the KI-values, the signal intensity of a reporter molecule (S)-1 was monitored in 19F-transverse relaxation experiments run in the absence and presence of increasing amounts of compound. d All intensities were scaled to the intensity of an internal standard (all signals in panel c and d are shifted on the X-axis for clarity). e KI-values were retrieved from theoretical binding curves calculated for each compound concentration8. f One-dimensional 1H-NMR spectra were recorded for each assay mixture to assess the structural integrity and solubility of the compound in the sample.
(1 picture or pasted object on this page, not shown here)

[5] = source data, read-out: SPR Kd, Mean
[6] = source data, read-out: SPR Kd, individual experiments (Exp1-5)
[7] = steady-state fit, 1:1 Langmuir, read-out: SPR KD
[8] = 19F-reporter Ki, protein 10 μM, reporter (S)-1 40 μM
[9] = 19F-reporter, individual experiments (Exp1-58), source data

Row | Ki (IL-1β [4]; protein 10 μM, reporter (S)-1 40 μM, read-out: 19F-reporter Ki) [µM] | Ki (IL-1β [4]; source data, read-out: 19F-reporter, individual experiments (Exp1-58)) | SMILES | binding to hIL-1β by protein-observed NMR (IL-1β [1]) | NMR I/Io values, individual experiments (Exp1-2) (IL-1β [1]) | IC50 (IL-1α) [µM] | Kd (IL-1β [2]; [5]) [µM] | Kd (IL-1β [2]; [6]) | Kd (IL-1β [2]; [7]) [µM] | IC50 (IL-1β [3]) [µM] | I/Io (ratio of peak intensities of Leu60 Cδ1H3 in 1H-13C-HMQC spectra in presence and absence of ligand) (IL-1β [1]) | NMR I/Io values, Mean (IL-1β [1]) | Ki (IL-1β [4]; [8]) [µM] | Ki (IL-1β [4]; [9])
1 |  |  | O=C1Nc2cc(C(F)(F)F)ccc2C1(O)c1cc(Cl)ccc1O (stereo not shown) [Compound 1] | validated as a binder by 2D NMR | 0.39 and 0.31 | > 200 |  |  |  |  |  |  |  | 
2 |  |  | Cc1ccc2c(c1)NC(=O)C2(O)c1cc(C(C)C)ccc1O (stereo not shown) [Compound 3] |  | 0.17 and 0.21 |  | 173 | 174 µM and 171 µM | 172 ± 2 | > 400 | 0.19 ± 0.03 (N = 2) | 0.19 | 151 ± 78 | 206 µM and 96 µM
3 |  |  | Cc1ccc2c(c1)N(C)C(=O)C2(O)c1cc(C(C)C)ccc1O (stereo not shown) [Compound 4] | lack of binding | 0.94 and 1.02 |  |  |  |  | > 500 | 0.98 ± 0.06 (N = 2) | 0.98 | > 1000 | 
4 |  |  | COc1ccc(Cl)cc1C1(O)C(=O)Nc2cc(C(F)(F)F)ccc21 (stereo not shown) [Compound 5] | lack of binding | 0.95 and 1.03 |  |  |  |  | > 530 | 0.99 ± 0.06 (N = 2) | 0.99 | > 1000 | 
5 |  |  | O=C1Nc2ccccc2C1(O)c1cc(Cl)ccc1O (stereo not shown) [Compound 6] | decreases protein binding | 0.57 and 0.61 |  |  |  |  | > 500 | 0.59 ± 0.03 (N = 2) | 0.59 | > 1000 | 
6 |  |  | O=C1Nc2cc(C(F)(F)F)ccc2C1(O)c1ccccc1O (stereo not shown) [Compound 7] | decreases protein binding | 0.41 and 0.48 |  |  |  |  | > 500 | 0.45 ± 0.05 (N = 2) |  | > 1000 | 
7 |  |  | Cc1ccc2c(c1)NC(=O)C2(O)c1cc(Cl)ccc1O (stereo not shown) [Compound 8] |  | 0.18 | > 200 |  | 312 µM (2×) and 158 µM | 261 ± 89 | > 200 | 0.18 ± 0.004 (N = 2) | 0.18 | 312 ± 124 | 110 µM and 195 µM and 206 µM and 210 µM and 215 µM and 223 µM and 233 µM and 254 µM (2×) and 260 µM (2×) and 120 µM and 261 µM and 262 µM and 268 µM and 278 µM and 281 µM and 282 µM and 283 µM and 287 µM and 292 µM and 293 µM and 133 µM and 295 µM and 309 µM and 317 µM and 325 µM and 331 µM (3×) and 337 µM and 338 µM and 340 µM and 162 µM and 345 µM and 362 µM and 382 µM and 387 µM and 393 µM and 395 µM and 399 µM and 427 µM and 439 µM (2×) and 164 µM and 454 µM and 456 µM and 471 µM and 475 µM and 580 µM and 600 µM and 622 µM (2×) and 86 µM and 183 µM (2×) and 184 µM (2×)
8 |  |  | O=C1Nc2cc(Cl)ccc2C1(O)c1cc(Cl)ccc1O (stereo not shown) [Compound 9] |  |  |  |  |  |  |  | 0.3 (N = 1) |  | 172 ± 35 | 197 µM and 147 µM
9 | 90 ± 41 | 119 µM and 61 µM | Cc1ccc(O)c(C2(c3cn[nH]c3)C(=O)Nc3cc(C(F)(F)F)ccc32)c1 (stereo not shown) [Compound 12] |  |  | > 200 | 138 | 145 µM and 130 µM | 138 ± 11 | > 200 | <0.1 (N = 1) |  |  | 
10 |  |  | Cc1ccc(O)c(C2(O)C(=O)Nc3cc(C(F)(F)F)ccc32)c1 (stereo not shown) [Compound 13] |  |  |  |  |  | > 1000 |  | 0.4 (N = 1) |  |  | 
11 |  |  | O=C1Nc2cc(C(F)(F)F)ccc2[C@]1(O)c1cc(Cl)ccc1O [Compound (S)-1] |  |  | > 200 |  |  |  |  |  |  |  | 

From article PMC10484922, “Discovery of a selective and biologically active low-molecular weight antagonist of human interleukin-1β” (Nature Communications, 2023)
